Measurements: patent US11633379B2, “Methods of inhibiting PCSK9” (TRUSTEES OF DARTMOUTH COLLEGE, priority 2017, dated 2023)
pIC50: −log10 of the molar value. “And” between values parts separate entries of the source, which are not always exact repeats. Equal entries are not always repeated.

What was measured:
PCSK9 [1] = assay: Basal_PCSK9 HepG2, primary SP and CRC (secreted PCSK9, ELISA); type: cell-based, human; settings: for Primary SP Basal_PCSK9 HepG2 SP % Inhib @ 2 μM / Primary SP Basal_PCSK9 HepG2 SP % Inhib @ 5 μM / Primary SP Basal_PCSK9 HepG2 SP % Inhib @ 50 μM: HepG2, single point; for pIC50: HepG2, concentration response curve; for Primary SP Basal_PCSK9 HepG2 SP % Inhib @ 5 μM / accumulation of PCSK9 in culture media: 5 μM; for accumulation of PCSK9 in culture media: HepG2 cells, FIGS. 2A-2B; for activity rating in words (PCSK9 inhibition, Table 2): summary of Table 2 data
Protocol: To study the effect of the compounds on PCSK9 secretion we used 1×10^6 HepG2 cells in 6-well culture plates, followed by incubation with media only, media+0.1% DMSO or Media+5 uM of 31/33/34/35 in 0.1% DMSO and collection of 50 ul of media at 8, 16, 24 and 40 hours or incubation with increasing concentration (0.2-50 μM) of 34 in 0.1% DMSO for 24 hours and collection of 50 ul of media. The collected media was analyzed for PCSK9 levels using commercially available ELISA kit (MBL-international, catalog # CY-8079) following the manufacturer instruction.
(§1) The below data (Table 2) was generated using the assays as discussed in Examples 1-2. Blanks mean no testing was performed. […] For the SP assays, the higher the number, the higher the inhibition, e.g., the better the activity of the compound. Compounds with a determined IC50 are particularly active, the IC50 values were determined via dose response curve (under the heading CRC which stands for concentration response curve aka dose response curve).

PCSK9 [2] = assay: PCSK9 AlphaLisa Huh7 SP and CRC; type: cell-based
PCSK9 [3] = assay: Secondary Basal_PCSK9 ELISA RPH; type: cell-based
Protocol: as §1

Compound: Cn1c2c(c3ccccc31)C(c1ccccc1)C1C=CC2C1 (centres unmarked) [Compound 1]
- Primary SP Basal_PCSK9 HepG2 SP % Inhib @ 2 μM (PCSK9 [1]): 0%

Compound: COc1ccc(C2c3c(n(C)c4ccccc34)C3C=CC2C3)cc1 (centres unmarked) [Compound 2]
- Primary SP Basal_PCSK9 HepG2 SP % Inhib @ 5 μM (PCSK9 [1]): 39.51%

Compound: Cn1c2c(c3ccccc31)C(c1ccc(C(F)(F)F)cc1)C1C=CC2C1 (centres unmarked) [Compound 3]
- Primary SP Basal_PCSK9 HepG2 SP % Inhib @ 5 μM (PCSK9 [1]): −0.4577%

Compound: Cn1c2c(c3ccccc31)C(c1ccco1)C1C=CC2C1 (centres unmarked) [Compound 4]
- Primary SP Basal_PCSK9 HepG2 SP % Inhib @ 5 μM (PCSK9 [1]): 11.69%

Compound: Cn1c2c(c3ccccc31)C(c1cccs1)C1C=CC2C1 (centres unmarked) [Compound 5]
- Primary SP Basal_PCSK9 HepG2 SP % Inhib @ 5 μM (PCSK9 [1]): 30.55%

Compound: CCC1c2c(n(C)c3ccccc23)C2C=CC1C2 (centres unmarked) [Compound 6]
- Primary SP Basal_PCSK9 HepG2 SP % Inhib @ 5 μM (PCSK9 [1]): −5.193%

Compound: Cn1c2c(c3ccccc31)C1(CCCC1)C1C=CC2C1 (centres unmarked) [Compound 7]
- Primary SP PCSK9 AlphaLisa Huh7 SP % Inhib @ 10 μM (PCSK9 [2]; Huh7): −34.71%

Compound: Cn1c2c(c3ccccc31)C1(CCCCC1)C1C=CC2C1 (centres unmarked) [Compound 8]
- Primary SP PCSK9 AlphaLisa Huh7 SP % Inhib @ 10 μM (PCSK9 [2]; Huh7): −44.02%

Compound: Cn1c2c(c3ccccc31)C1(CCCCC1)C1C=CC2C1 (centres unmarked) [Compound 9]
- Primary SP Basal_PCSK9 HepG2 SP % Inhib @ 5 μM (PCSK9 [1]): 21.92%

Compound: CC1=C(C)CC2(CCCCC2)c2c(n(C)c3ccccc23)C1 [Compound 10]
- Primary SP Basal_PCSK9 HepG2 SP % Inhib @ 5 μM (PCSK9 [1]): 11.61%

Compound: CC1=CCc2c(c3ccccc3n2C)C(c2ccccc2)C1 (centres unmarked) [Compound 11]
- Primary SP Basal_PCSK9 HepG2 SP % Inhib @ 5 μM (PCSK9 [1]): 38.95%

Compound: CC1C=CC(C)C(c2ccccc2)c2c1n(C)c1ccccc21 (centres unmarked) [Compound 12]
- Primary SP PCSK9 AlphaLisa Huh7 SP % Inhib @ 10 μM (PCSK9 [2]; Huh7): −261.1%

Compound: CC1(C)c2c(n(Cc3ccccc3)c3ccccc23)C2C=CC1C2 (centres unmarked) [Compound 13]
- Primary SP Basal_PCSK9 HepG2 SP % Inhib @ 5 μM (PCSK9 [1]): 18.09%

Compound: CC1(C)c2c([nH]c3ccccc23)C2C=CC1C2 (centres unmarked) [Compound 14]
- Primary SP Basal_PCSK9 HepG2 SP % Inhib @ 2 μM (PCSK9 [1]): 47.9%
- pIC50 (PCSK9 [1]): < 4.30

Compound: COC(=O)c1ccc2[nH]c3c(c2c1)C(C)(C)C1C=CC3C1 (centres unmarked) [Compound 15]
- Primary SP PCSK9 AlphaLisa Huh7 SP % Inhib @ 10 μM (PCSK9 [2]; Huh7): −117.8%

Compound: CC1(C)c2c([nH]c3ccc(I)cc23)C2C=CC1C2 (centres unmarked) [Compound 16]
- Primary SP Basal_PCSK9 HepG2 SP % Inhib @ 5 μM (PCSK9 [1]): 9.989%

Compound: CC1(C)c2c([nH]c3ccc(Br)cc23)C2C=CC1C2 (centres unmarked) [Compound 17]
- Primary SP Basal_PCSK9 HepG2 SP % Inhib @ 5 μM (PCSK9 [1]): 37.33%

Compound: CC1(C)c2c([nH]c3ccc(Cl)cc23)C2C=CC1C2 (centres unmarked) [Compound 18]
- Primary SP Basal_PCSK9 HepG2 SP % Inhib @ 5 μM (PCSK9 [1]): 21.64%

Compound: Cn1c2c(c3ccccc31)C1(CCCCC1)CC2c1ccccc1 (centres unmarked) [Compound 19]
- Primary SP Basal_PCSK9 HepG2 SP % Inhib @ 5 μM (PCSK9 [1]): 7.268%

Compound: COc1ccc(C2CC3(CCCCC3)c3c2n(C)c2ccccc32)cc1 (centres unmarked) [Compound 20]
- Primary SP Basal_PCSK9 HepG2 SP % Inhib @ 5 μM (PCSK9 [1]): 15.69%

Compound: Cc1ccc(C2CC3(CCCCC3)c3c2n(C)c2ccccc32)cc1 (centres unmarked) [Compound 21]
- Primary SP Basal_PCSK9 HepG2 SP % Inhib @ 5 μM (PCSK9 [1]): 12.18%

Compound: Cn1c2c(c3ccccc31)C1(CCCCC1)CC2c1ccc2ccccc2c1 (centres unmarked) [Compound 22]
- pIC50 (PCSK9 [2]; Huh7, concentration response curve, read-out: Primary CRC PCSK9 AlphaLisa Huh7 CRC Rel IC50): < 4.40
- Primary SP Basal_PCSK9 HepG2 SP % Inhib @ 5 μM (PCSK9 [1]): 77.2%

Compound: CC1(C)c2c([nH]c3ccc(F)cc23)C2C=CC1C2 (centres unmarked) [Compound 23]
- Primary SP PCSK9 AlphaLisa Huh7 SP % Inhib @ 10 μM (PCSK9 [2]; Huh7): −35.06%

Compound: CC1(C)c2c([nH]c3ccc(O)cc23)C2C=CC1C2 (centres unmarked) [Compound 24]
- Primary SP Basal_PCSK9 HepG2 SP % Inhib @ 5 μM (PCSK9 [1]): 4.997%

Compound: CC1(C)c2c([nH]c3ccc(C(F)(F)F)cc23)C2C=CC1C2 (centres unmarked) [Compound 25]
- Primary SP PCSK9 AlphaLisa Huh7 SP % Inhib @ 10 μM (PCSK9 [2]; Huh7): −334%

Compound: Cc1ccc(C2CC(C)(C)c3c2[nH]c2ccccc32)cc1 (centres unmarked) [Compound 31]
- Primary SP Basal_PCSK9 HepG2 SP % Inhib @ 5 μM (PCSK9 [1]): 26.2%
- accumulation of PCSK9 in culture media (PCSK9 [1]): significantly reduced accumulation of PCSK9 in culture media in a time-dependent and concentration-dependent manner
- Primary SP Basal_PCSK9 HepG2 SP % Inhib @ 50 μM (PCSK9 [1]): 87.5%
- pIC50 (PCSK9 [1]): 5.39
- activity rating in words (PCSK9 inhibition, Table 2) (PCSK9 [1]): particularly strongly active
- Secondary Basal_PCSK9 ELISA RPH % Inhib @ 100 μM (PCSK9 [3]): 19.03% and 22.14%

Compound: c1ccc(C2CC3(CCCCC3)c3c2[nH]c2ccccc32)cc1 (centres unmarked) [Compound 32]
- Primary SP Basal_PCSK9 HepG2 SP % Inhib @ 5 μM (PCSK9 [1]): 8.8%
- Primary SP Basal_PCSK9 HepG2 SP % Inhib @ 50 μM (PCSK9 [1]): 11.9%
- activity rating in words (PCSK9 inhibition, Table 2) (PCSK9 [1]): weakly active

Compound: Cc1ccc(C2CC3(CCCCC3)c3c2[nH]c2ccccc32)cc1 (centres unmarked) [Compound 33]
- Primary SP Basal_PCSK9 HepG2 SP % Inhib @ 5 μM (PCSK9 [1]): 18.9%
- accumulation of PCSK9 in culture media (PCSK9 [1]): significantly reduced accumulation of PCSK9 in culture media in a time-dependent and concentration-dependent manner
- Primary SP Basal_PCSK9 HepG2 SP % Inhib @ 50 μM (PCSK9 [1]): 53.4%
- pIC50 (PCSK9 [1]): 5.67
- activity rating in words (PCSK9 inhibition, Table 2) (PCSK9 [1]): particularly strongly active
- Secondary Basal_PCSK9 ELISA RPH % Inhib @ 20 μM (PCSK9 [3]; 20 μM): −4.143% and 2.541% and 3.284% and −5.595%
- Secondary Basal_PCSK9 ELISA RPH % Inhib @ 100 μM (PCSK9 [3]): 25.95% and 29.77%

Compound: Cc1ccc(C2CC3(CCCCC3)c3c2[nH]c2ccc(C)cc32)cc1 (centres unmarked) [Compound 35]
- Primary SP Basal_PCSK9 HepG2 SP % Inhib @ 5 μM (PCSK9 [1]): 26.4%
- accumulation of PCSK9 in culture media (PCSK9 [1]): significantly reduced accumulation of PCSK9 in culture media in a time-dependent and concentration-dependent manner
- Primary SP Basal_PCSK9 HepG2 SP % Inhib @ 50 μM (PCSK9 [1]): 90%
- pIC50 (PCSK9 [1]): 5.50
- activity rating in words (PCSK9 inhibition, Table 2) (PCSK9 [1]): particularly strongly active

Compound: Cc1ccc(C2CC(C)(C)c3c2[nH]c2ccc(C)cc32)cc1 (centres unmarked) [Compound 36]
- Primary SP Basal_PCSK9 HepG2 SP % Inhib @ 5 μM (PCSK9 [1]): 24.5%
- Primary SP Basal_PCSK9 HepG2 SP % Inhib @ 50 μM (PCSK9 [1]): 96.5%
- pIC50 (PCSK9 [1]): 4.73

Compound: COC(=O)[C@@H]1CC[C@H](O)[C@@]2(C)c3ccccc3N(C)[C@@H]12 [Compound 49]
- Primary SP Basal_PCSK9 HepG2 SP % Inhib @ 50 μM (PCSK9 [1]): −13.7% and −22.9%

Compound: CC1(C)C(=O)C[C@@]2(C)c3ccccc3N(Cc3ccccc3)[C@@]12C [Compound 53]
- Primary SP Basal_PCSK9 HepG2 SP % Inhib @ 50 μM (PCSK9 [1]): −20.1% and −22.3%

Compound: CN1c2ccccc2[C@]2(C)Cc3ccccc3N[C@H]12 [Compound 54]
- Primary SP PCSK9 AlphaLisa Huh7 SP % Inhib @ 10 μM (PCSK9 [2]; Huh7): −11.97%

Compound: C[C@@]12Cc3ccccc3N[C@@H]1N(Cc1ccccc1)c1ccccc12 [Compound 55]
- Primary SP PCSK9 AlphaLisa Huh7 SP % Inhib @ 10 μM (PCSK9 [2]; Huh7): −22.6%

Compound: CCC[C@@]12Cc3ccccc3N[C@@H]1N(C)c1ccccc12 [Compound 56]
- Primary SP PCSK9 AlphaLisa Huh7 SP % Inhib @ 10 μM (PCSK9 [2]; Huh7): 32.56% and 23.45%

Compound: CN1c2ccccc2[C@]2(Cc3ccccc3)Cc3ccccc3N[C@H]12 [Compound 57]
- Primary SP PCSK9 AlphaLisa Huh7 SP % Inhib @ 10 μM (PCSK9 [2]; Huh7): 17.71%

Compound: Cc1cccc2c1N[C@@H]1N(C)c3ccccc3[C@]1(C)C2 [Compound 58]
- Primary SP PCSK9 AlphaLisa Huh7 SP % Inhib @ 10 μM (PCSK9 [2]; Huh7): −2.718%

Compound: Cc1ccc2c(c1)C[C@@]1(C)c3ccccc3N(C)[C@H]1N2 [Compound 59]
- Primary SP PCSK9 AlphaLisa Huh7 SP % Inhib @ 10.1 μM (PCSK9 [2]; 10.1 μM, Huh7): −5.307%

Compound: CN1c2ccccc2[C@]2(C)Cc3cc(Cl)ccc3N[C@H]12 [Compound 60]
- Primary SP PCSK9 AlphaLisa Huh7 SP % Inhib @ 10 μM (PCSK9 [2]; Huh7): 9.09%

Compound: C=CCc1ccc2c(c1)C[C@@]1(C)c3ccccc3N(C)[C@H]1N2 [Compound 61]
- Primary SP PCSK9 AlphaLisa Huh7 SP % Inhib @ 10 μM (PCSK9 [2]; Huh7): −16.91%

Compound: CN1c2ccc(Br)cc2[C@]2(C)Cc3ccccc3N[C@H]12 [Compound 62]
- Primary SP PCSK9 AlphaLisa Huh7 SP % Inhib @ 10 μM (PCSK9 [2]; Huh7): 10.55% and 20.08%
